The text below walks through data of publication PMC6934599, “Phenoxyethyl Piperidine/Morpholine Derivatives as PAS and CAS Inhibitors of Cholinesterases: Insights for Future Drug Design” (Scientific Reports, 2019).

Broadly, the IC50 is the concentration that gives 50% inhibition. A word on the Ki: it is a dissociation constant, usually derived from enzyme kinetics or from competition with a known ligand.

Entries after “also recorded” stand apart in the source; their conditions may differ. Where two headings read alike, the source gives them in different places.

In test [1] the target is T1, BuChE (E.C.3.1.1.8, from equine serum) (Equus caballus, UniProt P81908).
T1 construct: BuChE (E.C.3.1.1.8, from equine serum); purchased Sigma-Aldrich and Fluka; host or cells: equine serum
T1 sequence (P81908 whole entry): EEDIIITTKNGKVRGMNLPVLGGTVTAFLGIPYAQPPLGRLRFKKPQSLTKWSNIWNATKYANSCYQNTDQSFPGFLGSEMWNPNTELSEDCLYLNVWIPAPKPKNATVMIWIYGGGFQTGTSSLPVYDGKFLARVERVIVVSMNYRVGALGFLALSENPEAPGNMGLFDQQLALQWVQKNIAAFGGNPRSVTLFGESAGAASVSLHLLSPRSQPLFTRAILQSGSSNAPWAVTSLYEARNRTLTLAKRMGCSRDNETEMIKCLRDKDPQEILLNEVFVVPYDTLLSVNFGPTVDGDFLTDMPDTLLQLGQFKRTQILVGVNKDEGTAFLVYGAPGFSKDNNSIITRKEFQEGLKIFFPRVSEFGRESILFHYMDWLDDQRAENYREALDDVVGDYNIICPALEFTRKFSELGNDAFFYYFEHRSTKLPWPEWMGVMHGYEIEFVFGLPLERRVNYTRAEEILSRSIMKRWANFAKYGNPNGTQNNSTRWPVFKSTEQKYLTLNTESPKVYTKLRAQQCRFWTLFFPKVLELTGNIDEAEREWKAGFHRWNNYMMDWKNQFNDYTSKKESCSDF
Briefly: biochemical. Format: biochemical. The note with it: for cholinesterase inhibitory activity against eqBuChE: in words; for inhibitory activity for eqBuChE: up to 100 µM concentrations; for IC50: modified Ellman's method, read-out: eqBuChE IC50. Here is the method: (§1) All the synthesized compounds were screened for their cholinesterase activity by Ellman’s spectrophotometric method with a slight modification. […] In brief, enzymatic reactions were accomplished in 96-well plates with total volume of 270 µL. Each well contained 0.1 M phosphate buffer (pH 7.4), 0.08 U/mL AChE or 0.05 U/mL BuChE and 0.3 mM of DTNB. In order to considering the influence of DMSO percentage on the enzymatic activity of AChE, different concentrations of the test sample were prepared in final concentrations of 0.2% DMSO. Then contents were incubated for 15 min at room temperature. The reaction was started with the addition of 20 µL of 0.45 mM substrate (ATCI/BTCI) into premixed enzyme/buffer/inhibitor mixture and monitored by using plate reader Synergy HT, Biotek, USA at 412 nm. The activity in the absence of sample compounds was considered as a blank. The percentage inhibition was calculated from (blank – test sample)/blank × 100.
(DTNB colorimetry detects thiols as they appear.)

In test [2] the target is T2, AChE (E.C.3.1.1.7, from electric eel) (Electrophorus electricus, UniProt O42275).
T2 construct: purchased Sigma-Aldrich and Fluka
T2 sequence (O42275 24-633): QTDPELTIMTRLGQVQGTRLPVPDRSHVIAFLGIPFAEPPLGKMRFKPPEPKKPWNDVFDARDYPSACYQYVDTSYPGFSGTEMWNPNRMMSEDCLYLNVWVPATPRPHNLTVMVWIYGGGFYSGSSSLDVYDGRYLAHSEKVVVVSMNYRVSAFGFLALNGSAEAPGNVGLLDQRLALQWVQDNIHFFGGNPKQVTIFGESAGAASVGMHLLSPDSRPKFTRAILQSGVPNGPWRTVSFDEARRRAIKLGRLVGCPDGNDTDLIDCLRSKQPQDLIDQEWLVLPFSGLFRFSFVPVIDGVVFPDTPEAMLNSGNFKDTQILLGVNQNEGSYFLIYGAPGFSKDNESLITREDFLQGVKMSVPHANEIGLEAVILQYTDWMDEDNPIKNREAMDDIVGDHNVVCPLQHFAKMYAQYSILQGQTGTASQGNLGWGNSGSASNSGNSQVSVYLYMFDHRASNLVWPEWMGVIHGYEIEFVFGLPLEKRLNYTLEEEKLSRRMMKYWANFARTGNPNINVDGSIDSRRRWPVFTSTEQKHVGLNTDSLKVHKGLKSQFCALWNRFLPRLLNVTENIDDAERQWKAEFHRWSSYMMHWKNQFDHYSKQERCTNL
Briefly: biochemical. Format: biochemical. The note with it: for cholinesterase inhibitory activity against eeAChE: in words. How it is done:
as §1

A further test concerns the target T3, eeAChE (Electrophorus electricus, UniProt O42275).
T3 construct: purchased Sigma-Aldrich and Fluka
Briefly: Kinetic study of eeAChE inhibition (Lineweaver-Burk). Format: biochemical. How it is done: Two fixed concentrations of the inhibitor (IC50, 2IC50) were chosen and for each concentration, the initial velocity (V) of the substrate ATCI/BTCI hydrolysis was measured at different concentrations in the range of 0–1.5 mM. […] Furthermore, Ki value was obtained by extrapolating the slopes of Lineweaver-Burk plots against inhibitor concentrations (Fig. 3B).
(§2) To determine the mechanisms of action of 5c and 7c, a series of experiments were performed at different concentrations of the substrate ATCI/BTCI. The inhibitor concentrations were (IC50, 2IC50). Substrates ATCI/BTCI concentrations were 0, 0.13, 0.3, 0.45, 0.675, 1.01 and 1.51 mM in all kinetic studies. Pre-incubation and measurement time were the same as reported in the perivous assay protocol. Kinetic characterization analysis was done spectrometrically at 412 nm.

The target of the next test is T4, eqBuChE (Equus caballus, UniProt P81908).
T4 construct: BuChE (E.C.3.1.1.8, from equine serum); purchased Sigma-Aldrich and Fluka; host or cells: equine serum
T4 sequence (P81908 whole entry): as the sequence (P81908 whole entry) above
Briefly: Kinetic study of eqBuChE inhibition (Lineweaver-Burk). Format: biochemical. How it is done: as §2

Another test concerns Aβ peptide. The note with it: cited from earlier work.
The subject of a further test is AChE. To be noted: cited from earlier work.
The mark [3] stands for this setting: modified Ellman's method, read-out: eeAChE IC50.

T3 sequence (O42275 24-633): as the sequence (O42275 24-633) above

Consider `O=Cc1ccc(OCCN2CCOCC2)cc1` [3b, 4-(2-morpholinoethoxy)benzaldehyde], for which, in test [1], the “cholinesterase inhibitory activity against eqBuChE” value is reported as “did not show any cholinesterase inhibitory activity”. In addition, the “cholinesterase inhibitory activity against eeAChE” value in test [2] is on record as “did not show any cholinesterase inhibitory activity”.

As to `N#CC(C#N)=Cc1ccc(OCCN2CCCCC2)cc1` [5a], the “inhibitory activity for eqBuChE” value in test [1] is on record as “no inhibitory activity”. Besides, in test [2], the concentration for half-maximal inhibition (IC50) came to 2800 ± 50 nM.

On to `N#CC(C#N)=Cc1ccc(OCCN2CCOCC2)cc1` [5b], for which the “cholinesterase inhibitory activity against eqBuChE” value in test [1] is reported as “did not show any cholinesterase inhibitory activity”. Also, the “cholinesterase inhibitory activity against eeAChE” value in test [2] is on record as “did not show any cholinesterase inhibitory activity”.

On to `COC(=O)/C(C#N)=C/c1ccc(OCCN2CCCCC2)cc1` [5c], for which, in test [1], the “inhibitory activity for eqBuChE” value is reported as “no inhibitory activity was found; also recorded: no inhibition”. Further, the “selectivity for AChE than for BuChE” value in test [2] (eeAChE vs eqBuChE IC50) was “more than 200 fold”. Besides, the IC50 in test [2] (setting [3]) came out at 500 nM. In addition, at eeAChE (Lineweaver-Burk plots, substrate ATCI), the “type of inhibition of eeAChE” value is “mixed-type inhibition”. Also, the inhibition constant (Ki) on eeAChE (slopes of Lineweaver-Burk plots against inhibitor concentrations) was 53 nM.

With `N#CC1=C(N)OC2=C(C(=O)CCC2)C1c1ccc(OCCN2CCCCC2)cc1` (centres unmarked) [7a, 2-Amino-5-oxo-4-(4-(2-(piperidin-1-yl)ethoxy)phenyl)-5,6,7,8-tetrahydro-4H-chromene-3-carbonitrile], the IC50 in test [1] came to 8100 ± 500 nM; in test [2] (setting [3]) it was 20400 ± 9300 nM.

`CC1(C)CC(=O)C2=C(C1)OC(N)=C(C#N)C2c1ccc(OCCN2CCCCC2)cc1` (centres unmarked) [7c, 2-Amino-7,7-dimethyl-5-oxo-4-(4-(2-(piperidin-1-yl)ethoxy)phenyl)-5,6,7,8-tetrahydro-4H-chromene-3-carbonitrile]: the IC50 is 2500 ± 600 nM in test [1] and 35600 ± 3700 nM in test [2] (setting [3]). On eqBuChE (Lineweaver-Burk plot, substrate BTCI), the “type of inhibition of eqBuChE” value is “mixed-type of inhibition”. This molecule showed an inhibition constant Ki at eqBuChE (plot of slopes against inhibitor concentration) of 156 nM.

As for `Cc1cc2c(c(=O)o1)C(c1ccc(OCCN3CCCCC3)cc1)C(C#N)=C(N)O2` (centres unmarked) [7e, 2-Amino-7-methyl-5-oxo-4-(4-(2-(piperidin-1-yl)ethoxy)phenyl)-4H,5H-pyrano[4,3-b]pyran-3-carbonitrile], in test [1], the “inhibitory activity for eqBuChE” value is “no inhibitory activity”. Moreover, in test [2] (setting [3]), the concentration for half-maximal inhibition (IC50) was 2100 ± 50 nM.

As for `Cc1cc2c(c(=O)o1)C(c1ccc(OCCN3CCOCC3)cc1)C(C#N)=C(N)O2` (centres unmarked) [7f, 2-Amino-7-methyl-4-(4-(2-morpholinoethoxy)phenyl)-5-oxo-4H,5H-pyrano[4,3-b]pyran-3-carbonitrile], the “cholinesterase inhibitory activity against eqBuChE” value in test [1] is on record as “did not show any cholinesterase inhibitory activity”. In addition, the “cholinesterase inhibitory activity against eeAChE” value in test [2] is given as “did not show any cholinesterase inhibitory activity”.

With `COc1cc2c(cc1OC)C(=O)C(CC1CCN(Cc3ccccc3)CC1)C2` (centres unmarked) [Donepezil, donepezil], in the test on Aβ peptide (at 100 µM, as stated in introduction section), the “inhibition of the aggregation of Aβ peptide” value is 22%.

As to `CC[N+](C)(CC)CCC[n+]1c(-c2ccccc2)c2cc(N)ccc2c2ccc(N)cc21` [Propidium, propidium], the IC50 in the test on AChE was […]. Moreover, the “effect on Aβ aggregation” value in the test with Aβ peptide was “reduces the aggregation”.

Consider `CC[N+](C)(C)c1cccc(O)c1` [edrophonium], for which, in the test with AChE, the half-inhibitory concentration (IC50) is 5360 nM. Also, in the test with Aβ peptide, the “effect on Aβ aggregation” value is given as “fails to slow down the Aβ aggregation”.
